The term Ki denotes the equilibrium dissociation constant of an inhibitor or competing ligand from its target. One may read the IC50 as the concentration that gives 50% inhibition.

In one data set the target is CYP2C9 (Homo sapiens, UniProt P11712). The data set can be described thus: Inhibition of CYP2C9-catalyzed tolbutamide 4-hydroxylation in human liver microsomes. It is filed as in vitro ADME. Also on record: incubation mixtures containing pooled human liver microsomes (HLMs, XTreme 200, XenoTech); tissue XenoTech XTreme 200; host or cells: pooled human liver microsomes. Conditions: HLMs. The source says:
We used HLMs to determine the mechanisms and constants (Ki values) for […] A inhibition of CYP1A2, CYP2B6, CYP2C8, CYP2C9 and CYP3A. […] The substrates were used at concentrations approximately near to their respective Km values. […] The other conditions were the same as in the cytochrome P450 inhibition study. […] Phenomenex, Torrance, CA, USA) and analyzed using a Shimadzu LCMS 8060 triple-quadrupole mass spectrometer coupled with a Nexera X2 ultra high-performance liquid chromatography system (Shimadzu, Kyoto, Japan) equipped with an electrospray ionization interface. The mobile phase consisted of 0.1% formic acid in water (A) and 0.1% formic acid in acetonitrile (B). […] The flow rate was 0.2 mL/min. Electrospray ionization was performed in positive-ion mode at 4000 V or in negative-ion mode at -3500 V. The optimum operating conditions were determined as follows: vaporizer temperature, 300 °C; capillary temperature, 350 °C; collision gas (argon) pressure, 1.5 mTorr. Quantitation was conducted in selected reaction monitoring (SRM) modes with the precursor-to-product ion transition for each metabolite (Table 1 and Table 2). We analyzed the data with Shimadzu LabSolution LC-MS software. The IC50 values were calculated by WinNonlin software (Pharsight, Mountain View, CA, USA). […]
Background: Microsomes from liver hold many membrane-bound enzymes, among them those of drug oxidation.

In the next data set the target is T1, UGT1A6 (Homo sapiens, UniProt P19224).
T1 construct: tissue XenoTech XTreme 200; host or cells: pooled human liver microsomes
T1 sequence (P19224 27-532): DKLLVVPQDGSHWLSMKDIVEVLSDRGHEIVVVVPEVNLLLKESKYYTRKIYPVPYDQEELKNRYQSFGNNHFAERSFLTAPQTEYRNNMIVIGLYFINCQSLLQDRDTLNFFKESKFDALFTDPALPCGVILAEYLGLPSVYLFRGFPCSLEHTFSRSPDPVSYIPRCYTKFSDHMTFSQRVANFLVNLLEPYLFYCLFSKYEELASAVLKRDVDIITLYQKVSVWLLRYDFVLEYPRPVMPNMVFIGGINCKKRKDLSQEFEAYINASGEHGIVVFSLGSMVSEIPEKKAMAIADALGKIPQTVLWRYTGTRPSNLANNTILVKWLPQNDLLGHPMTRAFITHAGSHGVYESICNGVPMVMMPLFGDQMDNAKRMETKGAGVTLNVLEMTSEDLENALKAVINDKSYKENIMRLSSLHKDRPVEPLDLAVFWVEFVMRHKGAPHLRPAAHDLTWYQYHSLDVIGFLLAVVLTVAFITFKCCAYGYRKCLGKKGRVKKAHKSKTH
The data set can be described thus: Inhibition of UGT1A6 (N-acetylserotonin glucuronidation) in human liver microsomes. It is filed as in vitro ADME. Conditions: substrate N-acetylserotonin; HLMs; average ± standard error. As to the method: (§1) The ability of selamariscina A to inhibit the metabolism of six UGT enzyme probe substrates was evaluated using previously developed methods with minor modifications. The microsomal incubation was performed by dividing the non-interactive substrate cocktail sets (set A included SN-38 for UGT1A1, CDCA for UGT1A3 and TFP for UGT1A4 while set B included N-SER for UGT1A6, MPA for UGT1A9 and NX for UGT2B7) (Table 2). In brief, HLMs (0.25 mg/mL) were activated by incubation in the presence of alamethicin (25 µg/mL) for 15 min on ice. After the addition of UGT probe substrates and inhibitor (0, 0.5, 2, 5, 20 and 50 μM), the incubation mixtures were pre-incubated at 37 °C for 5 min. […] After centrifugation at 18,000 g (5 min, 4 °C), aliquots of supernatants were analyzed by LC–MS/MS. […]
(§2) All metabolites and the IS were separated on a Kinetex XB-C18 column (100 × 2.10 mm, 2.6 μm, 100 Å; Phenomenex, Torrance, CA, USA) and analyzed using a Shimadzu LCMS 8060 triple-quadrupole mass spectrometer coupled with a Nexera X2 ultra high-performance liquid chromatography system (Shimadzu, Kyoto, Japan) equipped with an electrospray ionization interface. […] Quantitation was conducted in selected reaction monitoring (SRM) modes with the precursor-to-product ion transition for each metabolite (Table 1 and Table 2).
(§3) We analyzed the data with Shimadzu LabSolution LC–MS software. […]

A further data set concerns the target T2, UGT1A9 (Homo sapiens, UniProt O60656).
T2 construct: tissue XenoTech XTreme 200; host or cells: pooled human liver microsomes
Nature of the data set: Inhibition of UGT1A9 (mycophenolic acid glucuronidation) in human liver microsomes. The data set is classed as in vitro ADME. Conditions: substrate mycophenolic acid; HLMs; average ± standard error. As to the method: as §1, §2, §3

For another data set, the target named is T3, UGT1A1 (Homo sapiens, UniProt P22309).
T3 sequence (P22309 26-533): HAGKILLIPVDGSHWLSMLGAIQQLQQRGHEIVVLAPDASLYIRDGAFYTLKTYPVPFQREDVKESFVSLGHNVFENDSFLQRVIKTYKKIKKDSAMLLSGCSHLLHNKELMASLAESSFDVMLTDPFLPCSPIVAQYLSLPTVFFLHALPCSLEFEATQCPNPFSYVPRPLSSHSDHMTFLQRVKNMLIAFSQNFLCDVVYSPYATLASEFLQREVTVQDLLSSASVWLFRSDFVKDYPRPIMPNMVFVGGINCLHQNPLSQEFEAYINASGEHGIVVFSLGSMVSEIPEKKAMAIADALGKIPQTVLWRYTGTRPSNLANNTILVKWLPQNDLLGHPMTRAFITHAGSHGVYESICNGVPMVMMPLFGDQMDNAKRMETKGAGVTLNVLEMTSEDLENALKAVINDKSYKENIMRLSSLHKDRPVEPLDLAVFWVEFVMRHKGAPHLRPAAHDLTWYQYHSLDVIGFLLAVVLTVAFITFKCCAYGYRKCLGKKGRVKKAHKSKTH
Also on record: method as in PMID 29470958. Conditions: read-out: IC50, UGT1A1, previously reported value; cited from earlier work.

Sequence of CYP2C9 (P11712 whole entry): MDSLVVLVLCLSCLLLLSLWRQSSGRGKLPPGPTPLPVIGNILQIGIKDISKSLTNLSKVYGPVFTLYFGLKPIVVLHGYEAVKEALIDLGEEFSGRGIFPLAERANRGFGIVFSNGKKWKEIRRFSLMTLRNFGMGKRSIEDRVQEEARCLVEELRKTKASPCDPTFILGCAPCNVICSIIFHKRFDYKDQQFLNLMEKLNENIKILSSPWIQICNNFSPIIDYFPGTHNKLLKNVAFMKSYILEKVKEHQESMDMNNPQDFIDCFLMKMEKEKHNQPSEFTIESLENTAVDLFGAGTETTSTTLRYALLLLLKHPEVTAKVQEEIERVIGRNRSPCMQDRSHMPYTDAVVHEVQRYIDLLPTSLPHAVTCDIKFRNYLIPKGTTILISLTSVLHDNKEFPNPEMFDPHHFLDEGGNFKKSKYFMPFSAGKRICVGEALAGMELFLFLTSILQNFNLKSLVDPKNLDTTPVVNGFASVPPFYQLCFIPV
T2 sequence (O60656 26-530): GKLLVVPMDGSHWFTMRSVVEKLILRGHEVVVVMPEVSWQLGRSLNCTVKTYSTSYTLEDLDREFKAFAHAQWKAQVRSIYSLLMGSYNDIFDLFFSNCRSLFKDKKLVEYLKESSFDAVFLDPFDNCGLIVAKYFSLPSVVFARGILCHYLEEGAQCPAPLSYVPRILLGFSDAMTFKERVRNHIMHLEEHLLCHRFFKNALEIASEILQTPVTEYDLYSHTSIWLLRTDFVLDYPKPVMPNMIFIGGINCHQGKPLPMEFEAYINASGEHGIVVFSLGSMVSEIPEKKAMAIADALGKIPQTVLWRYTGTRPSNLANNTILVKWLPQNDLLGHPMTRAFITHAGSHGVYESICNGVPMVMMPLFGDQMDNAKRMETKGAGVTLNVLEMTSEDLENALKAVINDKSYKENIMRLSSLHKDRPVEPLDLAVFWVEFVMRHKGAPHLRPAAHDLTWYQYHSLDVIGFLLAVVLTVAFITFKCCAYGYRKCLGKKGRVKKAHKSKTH

Consider `O=C1CC(c2cc(-c3c(O)ccc4c(=O)cc(-c5ccc(O)cc5)oc34)c(O)cc2O)Oc2cc(O)cc(O)c21` (centres unmarked) [selamariscina A], for which, at CYP2C9, the “Mode of Inhibition, CYP2C9 tolbutamide” value is recorded as “Noncompetitive”. Besides, the Ki on CYP2C9 (average ± standard error, triplicate) worked out at 0.065 ± 0.01 µM. Besides, the IC50 against UGT1A6 was determined as 46.1 ± 11.7 µM; against UGT1A9 it was 40.4 ± 11.1 µM.

Turning to `O=c1cc(-c2ccc(O)c(-c3c(O)cc(O)c4c(=O)cc(-c5ccc(O)cc5)oc34)c2)oc2cc(O)cc(O)c12` [amentoflavone], the IC50 at UGT1A1 was 0.78 µM.
